{"source": "patent US20110053859A1", "about": "“METHODS TO REDUCE THE EFFECTS OF SLEEP DEPRIVATION” (The U. S. Government Respresented by the Department of …, priority 2007, published 2011)", "key": {"[1]": {"tested_on": "alert non sleep deprived monkeys", "experiment": "Multi-image delayed match to sample (DMS) task in alert non-sleep-deprived monkeys", "assay_type": "in vivo, rhesus monkeys (Macaca mulatta)", "conditions": "for DMS performance vs saline control: IV 10.0 μg/kg, all 8 monkeys", "excerpt": "(§1) Subjects: All procedures were reviewed and approved by the Institutional Animal Care and Use Committee of Wake Forest University, and performed in accordance with established practices as described in the National Institutes of Health Guide for Care and Use of Laboratory Animals. Eight adult male rhesus monkeys (Macaca mulatta) weighing (8.0-11.0 kg) were utilized in this study. They were individually housed in stainless steel cages in temperature and humidity controlled colony rooms with lighting maintained on a 0600:1800 on:off schedule and fed a diet of monkey chow supplemented by fresh fruit to maintain daily monitored body weight. Fluid intake was restricted in time and amount such that a prescribed volume of an animal's normal daily fluid intake (80 ml/kg) was received either during the behavioral testing session, or within 2 hours of being returned to the home cage.\n(§2) Behavioral Testing: Each monkey was exposed to 6 different testing conditions (Normal Vehicle, Alert orexin-A (IV and nasal), Sleep Deprivation, Sleep Deprivation+orexin-A (IV or nasal) which required 11-14 test sessions for each of the 8 monkeys. Animals were placed in a primate chair 1.5 meters in front of an LCD-front-projection screen for daily testing on a multi-image visual delayed match to sample (DMS) task (Porrino 2005) and performed 150-300 trials per session. Animals were trained to move a cursor tracked by a fluorescent marker attached to the back of the monkey's hand into the images by positioning the hand within a two dimensional coordinate system on the chair counter. Stimuli consisted of clip art images projected as 25 cm squares within a 3×3 position matrix onto a 1.0 meter×1.0 meter display. Responses to appropriate stimuli were rewarded with diluted fruit juice delivered via a sipper tube placed in front of the mouth. All animals were trained to a stable baseline on the DMS task in which delay varied randomly from (range 1-60 sec to 1-90 sec across animals) on a given trial, and the number of non-match stimuli (images) varied randomly from 2 to 8 in the Match phase of the task (Porrino 2005). As shown previously performance accuracy varied directly with duration of delay and number of nonmatch images (#images) presented in the Match phase (Hampson 2004, Porrino 2005). Each stimulus image (sample or nonmatch) was used on only one trial during a daily session and the sets of images were routinely changed every two weeks to maintain the trial unique feature of each session. Performance was monitored daily on the DMS task and there was no testing on weekends.\nDrug Administration: orexin-A (hypocretin-1) was mixed in saline for IV injections and in sterile water for nasal application. […]"}, "[2]": {"tested_on": "sleep deprived (30-36 hrs) rhesus monkeys", "experiment": "Multi-image DMS task after 30-36 hrs of sleep deprivation", "assay_type": "in vivo, rhesus monkeys (Macaca mulatta)", "excerpt": "as §1, §2\nSleep Deprivation Procedure: Sleep deprivation consisted of 30-36 hours of continuous sleep prevention supervised by laboratory personnel as previously verified using EEG recordings and sleep architecture to be a valid method of depriving animals of slow wave and REM sleep (Porrino 2005). Animals were maintained in a cage separate from their home cage in a continuously lighted room and kept awake with videos, music, occasional treats, gentle cage shaking, and interaction with technicians until their usual daily testing time. Animals were allowed 10 days between sleep deprivation episodes and were allowed to sleep after testing on each day following the 30-36 hr sleep deprivation episode. There were no residual effects of sleep deprivation on testing 24 hrs after the sleep deprivation procedure and animals returned to there normal sleep patterns on the next night following the sleep deprivation procedure.\nDrug Administration: orexin-A (hypocretin-1) was mixed in saline for IV injections and in sterile water for nasal application. For IV administration orexin-A, (#003-30, Phoenix Pharmaceuticals, Mountain View, Calif.) was dissolved in physiological saline as a stock solution of 200 μg/ml which was then diluted in saline to inject 3 different doses of 2.5, 5.0 and 10.0 μg/kg via an indwelling catheter placed in either the femoral or jugular vein using a glass syringe. […]"}, "drowsy monkeys": {"tested_on": "drowsy monkeys", "experiment": "DMS task in drowsy monkeys tested at the end of their normal day (4 PM)", "assay_type": "in vivo", "conditions": "for DMS performance at normal testing time: normal testing conditions (alert), nasal; for DMS performance impairment (high load and extended delay trials) in drowsy condition: tested at 4 PM, nasal spray 1.0 μg", "experimental": "Monkeys were tested at the end of their normal day 12 hr day at 4 PM, approximately 6-8 hours later than their normal testing period, in what can be considered a “drowsy” condition just prior to the onset of their dark cycle at 6 PM (Price 2003, Thomas 2000). At this time animals were impaired in performance relative to their normal testing times (high cognitive load: F(1.72)=8.49. p<0.001; extended delays-very high cognitive load: F(1.72)=5.84, p<0.01) during the day. […] F refers to an analysis of variance and the numbers in parentheses are the degrees of freedom, essentially the number of subjects and conditions (−1). The F value is the an indication of the effect size as measured by the analysis of variance, which is translated into a probability (p) value. This is a standard test for significance. […] Performance was decreased in animals administered nasal sprays of saline at this time of testing. Nasal orexin-A administered at 4 PM improved performance back to normal levels."}, "sleep deprived monkeys": {"tested_on": "sleep deprived monkeys", "experiment": "PET (FDG) local cerebral glucose metabolism (CMRglc) during DMS task in sleep deprived monkeys", "assay_type": "in vivo, rhesus monkeys (Macaca mulatta)", "excerpt": "Measurement of Local Rates of Cerebral Glucose Metabolism: Measurement of rates of cerebral glucose metabolism (CMRglc) were made in 8 monkeys in four different conditions: normal alert DMS task vehicle; DMS task-Sleep Deprivation vehicle; DMS task-Sleep Deprivation+orexin A (IV or nasal). All animals (n=8) were acclimated to the PET scan sessions to the extent that performance was not influenced by the injection or blood collection procedures. On the day of the scan the monkeys were placed in primate chairs and received a 30 sec injection of 3-5 mCi of [^18]-2-deoxy-2-fluoro-D-glucose (FDG). The DMS task was initiated 5-10 min later and was performed for a total of 40 minutes (80-100) trials while the FDG was incorporated and taken up by cells during performance in the DMS task. After 40 min animals were then anesthetized with ketamine (15 mg/kg, iv) and transported to the PET scanner. Following scan acquisition, monkeys were transported back to their home cages and continuously monitored until fully recovered. Effects of anesthesia and other factors associated with the PET scanning procedures were previously assessed and shown to not influence measures of isotope uptake.\nTo calculate glucose uptake tracer concentrations were measured in blood samples using an automated gamma well counter from three blood samples collected from the femoral vein at 10 minutes prior to tracer injection and 8 and 42 minutes post-injection. A population-averaged FDG blood curve (calculated for monkey) was scaled to the measured blood curve for the time period from injection to the end of the PET scan (Sokoloff 1977). Data were transformed to CMRglc based on the operational equation (Phelps 1979, Kennedy 1978). Rate constants (k1, k2, and k3) and lumped constant as determined in monkey by Kennedy et. al. 1978, along with a k4 value used in human studies (Phelps 1979). PET scans were performed with a General Electric (GE) Advance NXi PET scanner with a resolution of 4 mm and consisted of a five minute transmission scan acquired in 2D mode, followed by a ten minute emission scan acquired in 3D mode. The image reconstruction of the 3D data used the 3D-reprojection method with full quantitative corrections and smoothed using a 4 mm Gaussian filter transaxially and then segmented. Data were corrected for attenuation and reconstructed into 128 by 128 matrices using a Hanning filter with a 4mm cutoff transaxially and a ramp filter with an 8.5 mm cutoff axially.\nPET data were analyzed with Statistical Parametric Mapping (SPM99) software (http://www.fil.ion.ucl.ac.uk/spm/) implemented in MATLAB (MathWorks, Natick, Mass.). Reconstructed images for each scan from each of the 8 monkeys were co-registered to corresponding structural MR images obtained on a 1.5-T MR scanner (GE Medical Systems, Milwaukee, Wis.) using automated image registration (Black 2001) and then transformed spatially into a standard space with an FDG template for rhesus monkeys constructed in our laboratory based on procedures of Black and colleagues (Paxinos 2003). Resultant images were smoothed using a 2 mm isotropic Gaussian kernel with a voxel size of 1×1×1 mm. Scans were normalized for differences in global activity by proportional scaling. Effects at each voxel were estimated according to the general linear model using the multi-subject conditions and covariates option in SPM. Statistical maps were created for comparisons of the […] different experimental conditions: Normal Alert Vehicle vs. Normal Alert orexin-A (IV or nasal); Sleep Deprivation vs. Normal Alert Vehicle; Sleep Deprivation vs. Sleep Deprivation+orexin-A (IV or nasal) and Sleep Deprivation+orexin-A IV vs. Sleep Deprivation+orexin-A nasal. Exploratory analyses used a minimum voxel height (magnitude) threshold of p<0.01 and a minimum cluster size of 50 voxels. […]"}, "[3]": {"conditions": "nasal vs IV in the same monkeys"}}, "note": "Entries after “also recorded” stand apart in the source; their conditions may differ.", "data": [{"substance": "orexin-A: 33 residue neuropeptide hypocretin-1, residues 34-66 of human prepro-orexin; bought from Phoenix Pharmaceuticals (#003-30) (QPLPDCCRQKTCSCRLYELLHGAGNHAAGILTL; Orexin-A; UniProt O43612 34-66, looked up)", "values": [{"measurement": "DMS performance vs saline control", "setting": "[1]", "result": "slight but significant performance impairment"}, {"measurement": "DMS performance vs saline control", "setting": "[1]; listed as Orexin-A", "result": "significant reduction"}, {"measurement": "DMS performance, dose relation", "setting": "[1]; IV 2.5, 5.0 and 10.0 μg/kg", "result": "dose-related trend toward reduced performance"}, {"measurement": "DMS performance in normal alert sessions", "setting": "[1]; nasal spray 1.0 μg", "result": "little or no effect on DMS performance; also recorded: no significant effects"}, {"measurement": "Monkeys that failed to show significant improvement on high load trials", "setting": "[2]; IV 10.0 μg/kg", "result": "one of 8"}, {"measurement": "DMS performance on high cognitive load trials vs sleep deprived sessions", "setting": "[2]; IV 5.0 and 10.0 μg/kg", "result": "significantly improved relative to sleep deprived sessions"}, {"measurement": "DMS performance on low cognitive load trials vs alert condition", "setting": "[2]; IV 5.0 and 10.0 μg/kg", "result": "performed with the same efficiency as in the alert condition"}, {"measurement": "DMS performance vs alert non-sleep deprived levels", "setting": "[2]; IV 5.0 and 10.0 μg/kg", "result": "neither dose restored performance to alert non-sleep deprived levels"}, {"measurement": "DMS performance vs sleep deprived saline sessions", "setting": "[2]; IV 5.0 and 10.0 μg/kg", "result": "systematically increased performance; also recorded: partially reversed the detrimental effects on performance"}, {"measurement": "DMS performance on low cognitive load trials, nasal vs IV", "setting": "[2]; nasal 1.0 μg vs IV 10.0 μg/kg", "result": "no difference between IV and nasal orexin-A"}, {"measurement": "DMS performance overall and on high cognitive load trials, nasal vs IV", "setting": "[2]; nasal 1.0 μg vs IV 10.0 μg/kg", "result": "significantly more effective"}, {"measurement": "Overall DMS performance vs sleep deprivation saline", "setting": "[2]; nasal 1.0 μg, overall, low and high load trials", "result": "reversed the detrimental effects of 30-36 hr sleep deprivation"}, {"measurement": "DMS performance on high cognitive load trials", "setting": "[2]; nasal spray 1.0 μg", "result": "elevated performance above normal alert levels"}, {"measurement": "DMS performance on low cognitive load trials", "setting": "[2]; nasal spray 1.0 μg", "result": "returning performance to normal alert levels"}, {"measurement": "DMS performance on extended delay trials", "setting": "[2]; nasal spray 1.0 μg, extended delays (90-120 sec)", "result": "significantly above extended delay trials in both control sleep deprived and normal alert sessions; also recorded: significantly improved"}, {"measurement": "DMS performance at normal testing time", "setting": "drowsy monkeys", "result": "no effect on performance"}, {"measurement": "DMS performance at normal testing time", "setting": "drowsy monkeys; listed as hyocretin", "result": "no effect on cognitive performance"}, {"measurement": "DMS performance impairment (high load and extended delay trials) in drowsy condition", "setting": "drowsy monkeys", "result": "reversed completely"}, {"measurement": "DMS performance impairment (high load and extended delay trials) in drowsy condition", "setting": "drowsy monkeys; listed as hyocretin", "result": "reverses cognitive deficits"}, {"measurement": "Local CMRglc in DPFC vs sleep deprivation vehicle", "setting": "sleep deprived monkeys; IV 10.0 μg/kg", "result": "significant increases"}, {"measurement": "Local CMRglc in DStr vs sleep deprivation vehicle", "setting": "sleep deprived monkeys; IV 10.0 μg/kg", "result": "significant increases"}, {"measurement": "Local CMRglc in MTL vs sleep deprivation vehicle", "setting": "sleep deprived monkeys; IV 10.0 μg/kg", "result": "significant decrease"}, {"measurement": "Local CMRglc in Thal vs sleep deprivation vehicle", "setting": "sleep deprived monkeys; IV 10.0 μg/kg", "result": "significant increases"}, {"measurement": "Local CMRglc in DPFC vs sleep deprivation vehicle", "setting": "sleep deprived monkeys; nasal spray mist 1.0 μg", "result": "significantly elevated bilaterally"}, {"measurement": "Local CMRglc in MTL vs sleep deprivation vehicle", "setting": "sleep deprived monkeys; nasal spray mist 1.0 μg", "result": "significant decreases"}, {"measurement": "Change of CMRglc in DPFC, nasal vs IV", "setting": "sleep deprived monkeys; [3]", "result": "greater increases in CMRglc bilaterally"}, {"measurement": "Change of CMRglc in DStr, nasal vs IV", "setting": "sleep deprived monkeys; [3]", "result": "greater increases in CMRglc bilaterally"}, {"measurement": "Change of CMRglc in MTL, nasal vs IV", "setting": "sleep deprived monkeys; [3]", "result": "decreased CMRglc"}, {"measurement": "Change of CMRglc in Thal, nasal vs IV", "setting": "sleep deprived monkeys; [3]", "result": "greater increases in CMRglc bilaterally"}]}]}
